Legend:
[1] = Cyclic voltammetry; assay type: physicochemical; settings: CH2Cl2, NBu4PF6
Source text: The redox properties of the various gold(III) bis(dithiolene) and bis(diselenolene) complexes were investigated by cyclic voltammetry using the same conditions, dichloromethane solutions and NBu4PF6 as supporting electrolyte. Under these conditions, the nature of the counter-ion, Ph4P^+ or Et4N^+, had no influence on the redox properties observed, due to ion exchange with the Bu4N^+ of the supporting electrolyte. Thus, only the result of one monoanion is included in Table 1, even if the two salts were analyzed. For all the investigated monoanionic bis(dithiolene) complexes, three redox processes are observed on the cyclic voltammograms. On the anodic scan, the two oxidation waves correspond to the oxidation of the monoanionic species into the neutral and to the monocationic complex. Most of these complexes had the tendency to deposit on the electrode once oxidized and frequently a strong desorption peak was observed on the reversible scan. This phenomenon occurs essentially for the complex with an exocyclic sulfur atom, [AuSR(=S)]^−1. On the cathodic scan, an irreversible process associated with the reduction in the monoanion into the dianion occurs (Scheme 2). […] The presence of oxygen instead of sulfur makes the oxidation of the monoanionic into the neutral species easier. On the other hand, the presence of electron-withdrawing substituents such as =C(CN)2 induces an anodic shift of the oxidation potentials by 300 mV, compared with the =O derivative, leading to a monoanion which is more difficult to oxidize than the other complexes of the series. […] Indeed, the potential difference between the second and the first oxidation potentials amounts to 470 mV and 410 mV for the =O and the =C(CN)2 derivatives, respectively, while for the =S analogues this value is smaller (170 mV). […] For comparison, we also investigated the redox behavior of Auranofin using the same experimental conditions in CH2Cl2 in the presence of NBu4PF6 as a supporting electrolyte. Using these conditions, upon anodic scan only one irreversible oxidation process is observed at 1.42 V vs. SCE. Therefore, all these monoanionic gold bis(dithiolene) and bis(diselenolene) complexes are easier to oxidize than Auranofin.
All reagents and materials from commercial sources were used without further purification. NMR spectra were recorded at room temperature using CDCl3 unless otherwise stated (Figures S7–S15). Chemical shifts are reported in ppm and ^1H NMR spectra were referenced to residual CHCl3 (7.26 ppm) and ^13C NMR spectra were referenced to CHCl3 (77.2 ppm). Mass spectra were recorded with an Agilent 6510 instrument for organics compounds and with a Thermo-Fisher Q-Exactive instrument for complexes by the Center Régional de Mesures Physiques de l’Ouest, Rennes. Cyclic voltammograms (CV)s were carried out on a 10^−3 M solution of complex in CH2Cl2-[NBu4] [PF6] 0.1 M. CVs were recorded on a Biologic SP-50 instruments at 0.1 Vs^−1 on a platinum disk electrode. Potentials were measured versus KCl Saturated Calomel Electrode (SCE). Column chromatography was performed using silica gel Merck 60 (70–260 mesh). The solvents were purified and dried by standard methods. The proligand 2-SEt(=C(CN2)), [72] and complexes [N][AuSMe(=S)], [73] [N][AuSEt(=S)], [74] [P][AuSEt(=O)], [75] [N][AuSeEt(=S)] [75] and [P][AuSPr(=S)] [76] were synthesized according to the previously reported procedure.

[2] = system: A2780 ovarian cancer cells; design: method as in PMID 32391537; settings: 48 h incubation, MTT; starred values; read-out: IC50 A2780, 48 h; cited from earlier work

## CC(=O)OC[C@H]1O[C@@H]([S-])[C@H](OC(C)=O)[C@@H](OC(C)=O)[C@@H]1OC(C)=O.CCP(CC)CC.[Au+] [Auranofin, reference compound]
[1]
  irreversible oxidation process (anodic scan): 1.42 V vs. SCE
[2]
  IC50: 430 ± 270 nM
